Legend:
[1] = tested on: cytochrome p450 (CYP) IAI gene; test: MC RT-PCR with Celi competitive templates: induction of CYPIAI gene expression in β-napthoflavone-exposed BEP2D cells; format: cell-based, human; conditions: β-napthoflavone 10 μM, varying times, control 0.1% DMSO, cDNA loading matched by GAPDH native/competitive template bands
Method: (§1) In a second set of experiments, multiplex competitive reverse transcriptase polymerase chain reaction (MC RT-PCR) with competitive templates were prepared by the Celi method to evaluate the cytochrome p450 (CYP) IAI gene in β-napthoflavone-exposed BEP2D cells. The induction of CYPIAI gene expression was evaluated using both MC RT-PCR with Celi competitive templates, and Northern analysis. Competitive templates were prepared for both the CYPIAI and GAPDH genes. The primers used to prepare the competitive template for GAPDH were: […]
The PCR amplification conditions were the same as described for experiments using the competitive templates prepared for GAPDH and GSHPx by the Higuchi method except the annealing temperature was 55 degrees centigrade and the amplification was carried out for 38 cycles.
Because the native and competitive templates separate without prior restriction endonuclease digestion, samples were taken directly from the PCR reaction tube and applied to ethidium bromide stained 3% Nusieve, 1% LE agarose gels. It was then possible to quantify the products by taking a negative photograph of the gel using Polaroid 665 positive/negative instant film, subjecting the negative photograph to densitometry. […]

[2] = tested on: cytochrome p450 IA1 (CYPIA1); test: Northern analysis of CYPIAI gene expression in β-napthoflavone-exposed BEP2D cells; format: cell-based, human; conditions: β-napthoflavone 10 μM, varying times, control 0.1% DMSO, 32P-labeled CYPIAI cDNA probe
Method: as §1
RNA from BEP2D cells incubated for varying times with β-napthoflavone (10 μM) was either electrophoresed on a 1% LE formaldehyde denaturing gel for Northern analysis or MC RT-PCR amplified, as described above. For Northern analysis, following transfer of the RNA to GeneScreen, the filters were hybridized with ^32P-labeled CYPIAI cDNA.

O=c1cc(-c2ccccc2)oc2ccc3ccccc3c12 [β-napthoflavone]
band representing the native CYPIAI gene, exposed cells compared to control cells [1]: much more strongly represented
CYPIAI gene expression by Northern analysis [2]: increase

Reference: US8981068B2, “Compositions of standardized mixtures for determining an amount of a nucleic acid” (Gene Express, Inc., priority 2005, dated 2015)
